IC50 data for five molecules are collected here from ChEMBL document CHEMBL6134915, “Novel Sulfonamide Derivatives as Nav1.5 Sodium Channel Blockers for Treating Atrial Fibrillation” (ACS Med Chem Lett, 2025).

Broadly, the IC50 is the point on the concentration scale where inhibition reaches its midpoint.

What all share (type): cell-based
The target in assay [1] is T1, Sodium channel protein type 5 subunit alpha (Homo sapiens, UniProt Q14524). In words: Inhibition of human Nav1.5 expressed in CHO-K1 cells preincubated with compound for 3 mins in presence of ATXII followed by incubation under ventricular condition at sinus rate at 1 Hz with -100 mV holding potential for 25 sec by automated Qpatch electrophysiological recording. (Patch clamp records ionic current or voltage across a cell membrane.)

The target in assay [2] is T1, Sodium channel protein type 5 subunit alpha. In words: Inhibition of human Nav1.5 expressed in CHO-K1 cells preincubated for 3 mins followed by incubation under ventricular condition at sinus rate at 1 Hz with -100 mV holding potential for 25 sec by automated Qpatch electrophysiological recording.
Assay [3] shares this target. The assay can be described thus: Inhibition of human Nav1.5 expressed in CHO-K1 cells preincubated for 3 mins followed by incubation under atrial fibrillation-mimicking condition at 5 Hz with -85 mV holding potential for 12 sec by automated Qpatch electrophysiological recording.

T1 sequence (Q14524 whole entry): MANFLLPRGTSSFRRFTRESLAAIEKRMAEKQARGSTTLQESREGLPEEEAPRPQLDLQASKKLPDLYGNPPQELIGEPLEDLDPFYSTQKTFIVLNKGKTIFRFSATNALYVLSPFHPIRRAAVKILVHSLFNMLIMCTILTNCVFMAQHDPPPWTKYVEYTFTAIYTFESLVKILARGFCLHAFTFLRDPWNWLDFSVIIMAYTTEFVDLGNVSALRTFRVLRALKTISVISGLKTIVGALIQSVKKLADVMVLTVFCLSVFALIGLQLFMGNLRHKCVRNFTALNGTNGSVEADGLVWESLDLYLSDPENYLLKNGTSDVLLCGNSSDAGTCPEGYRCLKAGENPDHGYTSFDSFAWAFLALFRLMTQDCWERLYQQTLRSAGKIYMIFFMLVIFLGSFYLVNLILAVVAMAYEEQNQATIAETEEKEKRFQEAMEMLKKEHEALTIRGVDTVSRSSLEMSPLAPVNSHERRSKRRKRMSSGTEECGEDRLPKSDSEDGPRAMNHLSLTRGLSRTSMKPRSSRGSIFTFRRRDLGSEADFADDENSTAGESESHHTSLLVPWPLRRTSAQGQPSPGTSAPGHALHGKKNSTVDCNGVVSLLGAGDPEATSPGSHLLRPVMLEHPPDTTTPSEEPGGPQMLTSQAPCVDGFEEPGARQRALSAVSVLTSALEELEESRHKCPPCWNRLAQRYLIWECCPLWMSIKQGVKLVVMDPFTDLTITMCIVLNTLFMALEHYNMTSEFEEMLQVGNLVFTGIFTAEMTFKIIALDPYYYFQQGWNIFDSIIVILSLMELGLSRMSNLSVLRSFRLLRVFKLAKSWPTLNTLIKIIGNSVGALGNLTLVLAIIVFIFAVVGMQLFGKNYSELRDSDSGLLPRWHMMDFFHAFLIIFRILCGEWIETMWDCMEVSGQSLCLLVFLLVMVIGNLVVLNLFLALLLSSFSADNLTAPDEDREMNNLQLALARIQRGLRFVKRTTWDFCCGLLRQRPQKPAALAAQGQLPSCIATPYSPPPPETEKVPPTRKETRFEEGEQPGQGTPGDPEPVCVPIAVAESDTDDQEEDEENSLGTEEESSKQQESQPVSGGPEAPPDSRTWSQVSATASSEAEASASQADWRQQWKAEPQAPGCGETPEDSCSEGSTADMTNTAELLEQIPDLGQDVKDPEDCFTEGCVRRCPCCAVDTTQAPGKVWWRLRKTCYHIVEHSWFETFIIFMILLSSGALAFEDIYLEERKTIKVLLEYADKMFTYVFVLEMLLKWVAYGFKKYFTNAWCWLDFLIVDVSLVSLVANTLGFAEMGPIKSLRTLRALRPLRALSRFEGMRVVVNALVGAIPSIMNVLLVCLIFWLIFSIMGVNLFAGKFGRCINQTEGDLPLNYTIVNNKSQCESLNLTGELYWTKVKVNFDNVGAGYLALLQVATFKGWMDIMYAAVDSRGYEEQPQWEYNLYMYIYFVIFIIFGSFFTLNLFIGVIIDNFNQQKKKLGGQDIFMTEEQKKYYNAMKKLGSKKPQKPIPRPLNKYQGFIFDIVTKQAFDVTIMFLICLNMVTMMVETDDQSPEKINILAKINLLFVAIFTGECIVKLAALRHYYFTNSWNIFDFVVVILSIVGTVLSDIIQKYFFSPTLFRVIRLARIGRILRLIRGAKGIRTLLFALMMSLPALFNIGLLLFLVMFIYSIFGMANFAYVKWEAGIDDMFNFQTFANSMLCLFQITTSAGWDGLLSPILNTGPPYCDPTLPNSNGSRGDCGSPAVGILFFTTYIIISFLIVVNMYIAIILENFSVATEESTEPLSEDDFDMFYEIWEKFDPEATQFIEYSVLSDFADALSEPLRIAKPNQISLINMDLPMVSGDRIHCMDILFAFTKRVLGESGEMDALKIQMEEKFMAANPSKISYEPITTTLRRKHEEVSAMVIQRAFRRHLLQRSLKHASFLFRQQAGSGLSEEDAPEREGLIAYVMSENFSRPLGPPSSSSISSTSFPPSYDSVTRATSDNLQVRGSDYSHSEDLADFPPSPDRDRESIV

Turning to `C[C@@](O)(CS(N)(=O)=O)c1ccc(F)c(-c2nnn(Cc3cc(OC(F)(F)F)ccc3F)n2)c1`, the IC50 in assay [1] is 11 µM; in assay [2] it was over 30 µM; in assay [3], 1 µM.

As for `C[C@@](O)(CS(N)(=O)=O)c1ccc(Cl)c(-c2nnn(Cc3cc(OC(F)(F)F)ccc3F)n2)c1`, the values for the half-maximal inhibitory concentration (IC50) in assay [1], in assay [2] and in assay [3] were 28 µM, over 30 µM and 1.3 µM, respectively.

In the case of `C[C@](O)(CS(N)(=O)=O)c1ccc(Cl)c(-c2nnn(Cc3cc(OC(F)(F)F)ccc3F)n2)c1`, the IC50 in assay [1] was 15 µM; in assay [2] it was 28 µM; in assay [3] it was 1.3 µM.

`C[C@](O)(CS(N)(=O)=O)c1cccc(-c2nnn(Cc3cc(OC(F)(F)F)ccc3F)n2)n1` registered an IC50 in assay [3] of 0.8 µM.

In assay [3], `C[C@@](O)(CS(N)(=O)=O)c1cccc(-c2nnn(Cc3cc(OC(F)(F)F)ccc3F)n2)n1` registered a 50% inhibitory concentration (IC50) of 1 µM.
